Read-outs that look alike come from different tables or passages of the source.
How the values were obtained:
Type in all cases: binding
[1] = molecular target: T1, HeLa cell extract proteins (Homo sapiens, UniProt P04040)
T1 construct: endogenous in cells; host or cells: HeLa cell extract
T1 sequence (P04040 1-527): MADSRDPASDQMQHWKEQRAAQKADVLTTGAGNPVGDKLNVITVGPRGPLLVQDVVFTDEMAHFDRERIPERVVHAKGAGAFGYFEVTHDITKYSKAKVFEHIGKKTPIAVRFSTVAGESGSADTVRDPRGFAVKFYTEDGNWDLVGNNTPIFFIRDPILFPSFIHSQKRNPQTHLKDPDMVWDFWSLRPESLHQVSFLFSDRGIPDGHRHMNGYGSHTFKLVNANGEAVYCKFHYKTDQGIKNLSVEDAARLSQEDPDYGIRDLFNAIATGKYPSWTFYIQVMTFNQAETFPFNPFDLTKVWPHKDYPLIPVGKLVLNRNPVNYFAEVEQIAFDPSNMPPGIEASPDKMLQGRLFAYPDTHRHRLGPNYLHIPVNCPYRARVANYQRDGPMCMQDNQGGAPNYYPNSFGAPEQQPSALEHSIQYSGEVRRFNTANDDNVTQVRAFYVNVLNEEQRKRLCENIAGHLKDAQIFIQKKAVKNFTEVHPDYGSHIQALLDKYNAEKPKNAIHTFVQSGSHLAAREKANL

[2] = molecular target: T2, HeLa cell extract proteins (Homo sapiens, UniProt Q13162)
T2 construct: endogenous in cells; host or cells: HeLa cell extract
T2 sequence (Q13162 38-271): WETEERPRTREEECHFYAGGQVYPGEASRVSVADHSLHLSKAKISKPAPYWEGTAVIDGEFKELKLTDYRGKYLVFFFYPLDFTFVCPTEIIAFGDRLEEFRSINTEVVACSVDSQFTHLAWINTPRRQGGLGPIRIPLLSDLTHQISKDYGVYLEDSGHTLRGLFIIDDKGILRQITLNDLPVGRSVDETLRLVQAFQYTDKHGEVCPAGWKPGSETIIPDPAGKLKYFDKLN

[3] = molecular target: T3, HeLa cell extract proteins (Homo sapiens, UniProt Q8TEX9)
T3 construct: endogenous in cells; host or cells: HeLa cell extract
T3 sequence (Q8TEX9 1-1081): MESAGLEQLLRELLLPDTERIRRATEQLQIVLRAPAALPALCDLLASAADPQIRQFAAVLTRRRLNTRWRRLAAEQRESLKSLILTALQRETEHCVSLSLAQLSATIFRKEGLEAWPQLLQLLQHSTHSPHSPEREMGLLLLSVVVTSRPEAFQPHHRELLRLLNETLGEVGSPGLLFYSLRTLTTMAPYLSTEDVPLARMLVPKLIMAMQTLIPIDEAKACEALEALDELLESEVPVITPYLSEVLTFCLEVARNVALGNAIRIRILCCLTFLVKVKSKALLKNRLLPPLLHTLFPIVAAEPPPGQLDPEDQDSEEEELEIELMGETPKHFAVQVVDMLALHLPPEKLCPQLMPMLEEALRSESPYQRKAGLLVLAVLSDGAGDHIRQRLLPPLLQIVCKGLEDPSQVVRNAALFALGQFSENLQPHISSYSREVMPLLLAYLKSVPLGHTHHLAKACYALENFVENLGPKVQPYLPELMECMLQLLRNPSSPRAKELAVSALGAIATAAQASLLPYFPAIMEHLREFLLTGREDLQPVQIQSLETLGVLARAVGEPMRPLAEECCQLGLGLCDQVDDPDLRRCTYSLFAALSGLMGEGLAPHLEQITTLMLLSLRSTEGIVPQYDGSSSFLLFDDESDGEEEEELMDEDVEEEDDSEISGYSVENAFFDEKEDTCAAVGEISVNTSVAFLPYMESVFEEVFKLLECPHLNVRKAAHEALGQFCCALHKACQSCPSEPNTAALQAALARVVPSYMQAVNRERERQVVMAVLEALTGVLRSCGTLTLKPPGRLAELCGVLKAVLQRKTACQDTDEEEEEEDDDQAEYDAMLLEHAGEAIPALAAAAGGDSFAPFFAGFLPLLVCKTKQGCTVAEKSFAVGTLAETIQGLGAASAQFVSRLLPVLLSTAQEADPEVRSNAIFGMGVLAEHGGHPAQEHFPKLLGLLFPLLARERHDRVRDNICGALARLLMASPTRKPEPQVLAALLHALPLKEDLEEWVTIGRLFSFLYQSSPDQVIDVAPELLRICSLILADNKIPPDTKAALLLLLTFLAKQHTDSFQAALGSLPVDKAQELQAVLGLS

[4] = molecular target: T4, HeLa cell extract proteins (Homo sapiens, UniProt Q13618)
T4 construct: endogenous in cells; host or cells: HeLa cell extract
T4 sequence (Q13618 whole entry): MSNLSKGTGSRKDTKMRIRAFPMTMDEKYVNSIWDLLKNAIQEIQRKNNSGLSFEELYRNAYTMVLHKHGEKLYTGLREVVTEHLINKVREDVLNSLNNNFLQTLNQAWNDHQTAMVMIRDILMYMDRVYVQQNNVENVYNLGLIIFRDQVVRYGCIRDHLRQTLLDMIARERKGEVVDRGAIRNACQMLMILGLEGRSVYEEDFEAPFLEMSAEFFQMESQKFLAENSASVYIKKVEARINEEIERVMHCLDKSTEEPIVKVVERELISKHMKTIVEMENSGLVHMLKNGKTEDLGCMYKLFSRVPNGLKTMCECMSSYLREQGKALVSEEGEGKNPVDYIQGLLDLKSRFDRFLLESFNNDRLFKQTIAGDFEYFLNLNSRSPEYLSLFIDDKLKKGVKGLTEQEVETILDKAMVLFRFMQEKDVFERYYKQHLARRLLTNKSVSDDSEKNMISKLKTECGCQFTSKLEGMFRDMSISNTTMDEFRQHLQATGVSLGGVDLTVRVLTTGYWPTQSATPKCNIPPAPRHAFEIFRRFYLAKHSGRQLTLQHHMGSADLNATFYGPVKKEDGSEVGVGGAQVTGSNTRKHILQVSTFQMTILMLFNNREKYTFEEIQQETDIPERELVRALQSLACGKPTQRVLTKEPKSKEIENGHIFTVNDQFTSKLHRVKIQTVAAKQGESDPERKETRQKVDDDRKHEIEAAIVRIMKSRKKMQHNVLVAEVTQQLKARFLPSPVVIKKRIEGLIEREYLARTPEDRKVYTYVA

[5] = molecular target: T5, HeLa cell extract proteins (Homo sapiens, UniProt P16152)
T5 construct: endogenous in cells; host or cells: HeLa cell extract
T5 sequence (P16152 1-277): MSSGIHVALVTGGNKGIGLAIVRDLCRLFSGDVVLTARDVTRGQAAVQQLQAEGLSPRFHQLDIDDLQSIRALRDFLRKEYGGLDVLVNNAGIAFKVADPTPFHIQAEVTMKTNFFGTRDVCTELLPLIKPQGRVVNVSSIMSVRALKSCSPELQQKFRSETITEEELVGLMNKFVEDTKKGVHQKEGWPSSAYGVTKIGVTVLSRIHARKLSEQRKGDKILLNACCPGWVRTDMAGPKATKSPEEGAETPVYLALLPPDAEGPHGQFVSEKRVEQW

[6] = molecular target: T6, HeLa cell extract proteins (Homo sapiens, UniProt O43143)
T6 construct: endogenous in cells; host or cells: HeLa cell extract
T6 sequence (O43143 whole entry): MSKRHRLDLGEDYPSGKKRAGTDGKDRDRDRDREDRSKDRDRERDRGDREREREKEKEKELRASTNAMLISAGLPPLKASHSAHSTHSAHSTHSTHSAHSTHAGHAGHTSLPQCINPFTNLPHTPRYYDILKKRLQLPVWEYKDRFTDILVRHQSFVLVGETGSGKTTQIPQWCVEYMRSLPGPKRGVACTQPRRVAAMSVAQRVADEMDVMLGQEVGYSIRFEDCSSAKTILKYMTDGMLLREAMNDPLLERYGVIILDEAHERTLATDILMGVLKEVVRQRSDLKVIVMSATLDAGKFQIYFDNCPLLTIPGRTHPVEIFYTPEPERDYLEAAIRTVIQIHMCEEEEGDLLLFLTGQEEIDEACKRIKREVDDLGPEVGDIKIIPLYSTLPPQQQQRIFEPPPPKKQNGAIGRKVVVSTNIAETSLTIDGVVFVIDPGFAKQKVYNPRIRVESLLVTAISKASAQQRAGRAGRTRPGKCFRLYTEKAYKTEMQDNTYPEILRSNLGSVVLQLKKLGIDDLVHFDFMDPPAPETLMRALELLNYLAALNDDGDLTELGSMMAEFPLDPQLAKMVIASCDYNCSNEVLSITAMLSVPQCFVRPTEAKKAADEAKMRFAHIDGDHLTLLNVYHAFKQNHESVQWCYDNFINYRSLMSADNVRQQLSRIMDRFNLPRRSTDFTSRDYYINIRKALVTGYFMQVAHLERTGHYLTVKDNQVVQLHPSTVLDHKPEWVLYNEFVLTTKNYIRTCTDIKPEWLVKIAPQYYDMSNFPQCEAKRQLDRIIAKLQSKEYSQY

[7] = molecular target: T7, HeLa cell extract proteins (Homo sapiens, UniProt P36542)
T7 construct: endogenous in cells; host or cells: HeLa cell extract
T7 sequence (P36542 26-298): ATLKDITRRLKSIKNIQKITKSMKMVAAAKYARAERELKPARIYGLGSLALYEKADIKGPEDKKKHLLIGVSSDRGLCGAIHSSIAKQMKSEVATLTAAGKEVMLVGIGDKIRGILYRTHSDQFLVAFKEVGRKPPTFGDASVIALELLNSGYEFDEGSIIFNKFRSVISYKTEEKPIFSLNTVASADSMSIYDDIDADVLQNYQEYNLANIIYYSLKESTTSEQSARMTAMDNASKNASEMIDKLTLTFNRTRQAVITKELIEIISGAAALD

[8] = molecular target: T8, HeLa cell extract proteins (Homo sapiens, UniProt P26641)
T8 construct: endogenous in cells; host or cells: HeLa cell extract
T8 sequence (P26641 whole entry): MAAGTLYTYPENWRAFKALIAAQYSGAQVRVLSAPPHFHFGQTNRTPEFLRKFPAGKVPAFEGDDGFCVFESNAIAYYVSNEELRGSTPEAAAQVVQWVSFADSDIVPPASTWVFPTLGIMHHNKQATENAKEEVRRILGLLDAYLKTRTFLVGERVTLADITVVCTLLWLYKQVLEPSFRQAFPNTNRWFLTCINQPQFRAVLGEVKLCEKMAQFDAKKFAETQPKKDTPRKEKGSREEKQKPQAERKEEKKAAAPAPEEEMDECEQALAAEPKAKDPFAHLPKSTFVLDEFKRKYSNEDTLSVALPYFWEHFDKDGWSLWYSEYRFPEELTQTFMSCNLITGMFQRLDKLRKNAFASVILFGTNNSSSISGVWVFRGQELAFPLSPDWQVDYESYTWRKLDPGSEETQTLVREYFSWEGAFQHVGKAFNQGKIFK

[9] = molecular target: T9, HeLa cell extract proteins (Homo sapiens, UniProt O14980)
T9 construct: endogenous in cells; host or cells: HeLa cell extract
T9 sequence (O14980 whole entry): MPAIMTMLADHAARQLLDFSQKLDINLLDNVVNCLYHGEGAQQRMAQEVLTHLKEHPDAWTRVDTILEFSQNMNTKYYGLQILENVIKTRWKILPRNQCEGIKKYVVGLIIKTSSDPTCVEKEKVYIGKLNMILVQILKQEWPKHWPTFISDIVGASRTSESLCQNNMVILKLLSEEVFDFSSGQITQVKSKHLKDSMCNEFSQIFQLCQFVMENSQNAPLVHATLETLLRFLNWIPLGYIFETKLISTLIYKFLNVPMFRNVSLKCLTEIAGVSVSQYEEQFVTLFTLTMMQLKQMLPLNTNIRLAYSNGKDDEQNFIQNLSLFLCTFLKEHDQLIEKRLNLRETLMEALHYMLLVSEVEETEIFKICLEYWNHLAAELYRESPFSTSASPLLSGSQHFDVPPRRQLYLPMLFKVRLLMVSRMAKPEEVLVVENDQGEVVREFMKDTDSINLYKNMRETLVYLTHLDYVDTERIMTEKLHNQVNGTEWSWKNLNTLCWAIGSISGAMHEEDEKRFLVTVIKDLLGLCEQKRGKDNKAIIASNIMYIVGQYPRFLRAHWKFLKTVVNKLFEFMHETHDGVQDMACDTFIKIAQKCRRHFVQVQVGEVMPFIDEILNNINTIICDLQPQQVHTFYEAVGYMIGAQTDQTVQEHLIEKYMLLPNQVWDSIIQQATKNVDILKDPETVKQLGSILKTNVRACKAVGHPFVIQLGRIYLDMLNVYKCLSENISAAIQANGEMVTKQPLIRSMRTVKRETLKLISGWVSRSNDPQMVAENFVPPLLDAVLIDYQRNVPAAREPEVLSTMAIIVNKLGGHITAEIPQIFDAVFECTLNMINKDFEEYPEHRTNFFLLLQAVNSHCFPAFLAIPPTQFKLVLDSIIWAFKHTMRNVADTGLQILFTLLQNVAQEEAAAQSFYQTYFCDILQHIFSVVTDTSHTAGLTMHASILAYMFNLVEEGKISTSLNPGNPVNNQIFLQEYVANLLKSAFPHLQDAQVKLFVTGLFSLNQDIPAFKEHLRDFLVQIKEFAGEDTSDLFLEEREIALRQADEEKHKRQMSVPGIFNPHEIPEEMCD

[10] = molecular target: T10, HeLa cell extract proteins (Homo sapiens, UniProt P23526)
T10 construct: endogenous in cells; host or cells: HeLa cell extract
T10 sequence (P23526 whole entry): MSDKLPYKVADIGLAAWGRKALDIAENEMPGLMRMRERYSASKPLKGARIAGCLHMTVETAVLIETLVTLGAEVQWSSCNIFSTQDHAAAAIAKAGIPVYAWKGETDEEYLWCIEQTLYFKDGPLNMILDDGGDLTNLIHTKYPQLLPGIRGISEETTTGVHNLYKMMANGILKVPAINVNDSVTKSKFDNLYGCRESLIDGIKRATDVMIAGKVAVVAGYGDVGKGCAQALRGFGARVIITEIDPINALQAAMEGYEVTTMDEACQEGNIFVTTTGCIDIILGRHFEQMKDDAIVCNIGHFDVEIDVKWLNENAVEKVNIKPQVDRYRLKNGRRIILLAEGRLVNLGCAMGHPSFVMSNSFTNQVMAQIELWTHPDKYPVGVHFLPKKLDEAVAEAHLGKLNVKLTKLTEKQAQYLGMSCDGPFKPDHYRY

[11] = HeLa, protein PRDX4 (PEROXIREDOXIN-4)

Structure (SMILES)	fold changes relative to vehicle control ([1]; captured protein CAT, HeLa)	fold changes relative to vehicle control ([2]; HeLa, protein PRDX4)	fold changes relative to vehicle control ([3]; captured protein IPO4, HeLa)	fold changes relative to vehicle control ([4]; captured protein CUL3, HeLa)	fold changes relative to vehicle control ([5]; HeLa, protein CBR1)	fold changes relative to vehicle control ([6]; captured protein DHX15, HeLa)	fold changes relative to vehicle control ([7]; HeLa, protein ATP5C1)	fold changes relative to vehicle control ([8]; protein EEF1G, HeLa)	fold changes relative to vehicle control ([9]; HeLa, protein XPO1)	fold changes relative to vehicle control ([10]; protein AHCY, HeLa)	fold changes relative to vehicle control ([1]; protein CAT, HeLa)	fold changes relative to vehicle control [2, 11]	fold changes relative to vehicle control ([3]; protein IPO4, HeLa)	fold changes relative to vehicle control ([4]; HeLa, protein CUL3)	fold changes relative to vehicle control ([5]; protein CBR1, HeLa)	fold changes relative to vehicle control ([6]; protein DHX15, HeLa)	fold changes relative to vehicle control ([7]; HeLa, captured protein ATP5C1)	fold changes relative to vehicle control ([8]; HeLa, protein EEF1G)	fold changes relative to vehicle control ([9]; HeLa, captured protein XPO1)	fold changes relative to vehicle control ([10]; HeLa, protein AHCY)	also measured
Nc1nc2cccc(-c3ccccc3)c2n1Cc1ccc(Cl)c(Cl)c1 [compound 3]	0.78	0.99	0.97	0.93	1.02	0.62	0.89	0.94	1.03	0.86											
Nc1nc2[nH]cc(CCc3ccc(C(=O)N[C@@H](CCC(=O)O)C(=O)O)cc3)c2c(=O)[nH]1 [PTX, pemetrexed]																					fold changes relative to vehicle control [1]: 0.88; fold changes relative to vehicle control [2]: 0.96; fold changes relative to vehicle control [3]: 0.88; fold changes relative to vehicle control [4]: 0.92; fold changes relative to vehicle control [5]: 0.8; fold changes relative to vehicle control [6]: 0.71; fold changes relative to vehicle control [7]: 1.01; fold changes relative to vehicle control [8]: 1.05; fold changes relative to vehicle control [9]: 0.86; fold changes relative to vehicle control [10]: 0.98
Nc1nc2c(c(=O)[nH]1)N(C=O)C(CNc1ccc(C(=O)N[C@@H](CCC(=O)O)C(=O)O)cc1)CN2 (stereo partly shown) [LEU, leucovorin]											0.87	1.09	0.89	0.92	0.81	0.74	0.99	1	0.92	0.98	
CCCCCCOc1cccc(Cc2cnc(N)nc2N)c1 [compound 2]	1.03	0.93	1.01	1.17	1.14	0.9	0.9	1.67	1.09	1.26											
NCCOCCOCC(=O)Nc1nc2ncc(CNc3ccc(C(=O)NC(CCC(=O)O)C(=O)O)cc3)nc2c(=O)[nH]1 (stereo not shown) [compound 6]											0.94	0.92	1.04	0.97	0.89	0.83	0.97	1.15	0.93	1.13	
CCCCCCOc1ccc(Cc2cnc(N)nc2N)cc1 [compound 1]	0.77	1.08	0.83	1.01	0.89	0.71	1.05	1.31	0.99	1.01											
NCCCNc1ccc(C(=O)NC(CCC(=O)O)C(=O)O)cc1 (stereo not shown) [compound 7]											1.39	0.99	0.94	0.91	0.92	0.75	0.99	0.94	0.94	0.99	

From PMC6199744, “Development of Chemical Proteomics for the Folateome and Analysis of the Kinetoplastid Folateome” (ACS Infectious Diseases, 2018)
